Measurements: US8138220B2, “[2-(6-fluoro-1H-indol-3-ylsulfanyl)benzyl]methyl amine for the treatment of affective disorders” (H. Lundbeck A/S, priority 2006, dated 2012)

Key:
[1] = Solubility in water; type: physicochemical; conditions: well-defined 1:1 salts, in words
[2] = test system: Male C57B1/6 mice; test: Stress-induced hyperthermia; type: in vivo, mouse; conditions: chlordiazepoxide 10 mg/kg, one hour before
Experimental: (§1) In all experiments, animals were maintained on a 12:12 light-dark cycle with lights on at 0600 h. Food and water were available ad libitum
The stress-induced hyperthermia (SIH) test is based upon the principle that, like other mammals, mice have a natural hyperthermic response to stress. In this paradigm, the stressor is having the rectal temperature taken. This physiological response is considered to reflect the anxiety level of the animal, and is attenuated by pretreatment with anxiolytic drugs such as benzodiazepines.
Male C57B1/6 mice (18-21 g) were housed 5/cage until 1 day before the experiment, at which time they were brought to the testing room and singly-housed. Testing was conducted over a two-day period from 9-12 am. Mice received vehicle, chlordiazepoxide (10 mg/kg), or 0.02, 0.08, or 0.32 mg/kg Test compound (s.c.). One hour later, core temperature was measured with a rectal probe (T1) and each animal was returned to its cage. Ten minutes later, a second reading was obtained (T2). The difference between the two readings (T2−T1) was calculated as the measure of stress-induced hyperthermia.

[3] = test system: Male NMRI mice; test: Antimanic effects, sensitized amphetamine response in mice; type: in vivo, mouse; conditions: for induced locomotor activity: amphetamine-sensitised mice, amphetamine challenge 1.25 mg/kg; for baseline activity: tested doses, each alone
Experimental: (§2) In all experiments, animals were maintained on a 12:12 light-dark cycle with lights on at 06:00 h. Food and water was available ad libitum. Animals were taken to the experimental laboratory in the afternoon the day before the experiment was conducted. All drug doses are listed as mg salt pr. kg. Blood-samples were collected within 30 minutes after the testing was finalised.
Repeated intermittent administration of amphetamine causes development of a sensitised response to a subsequent amphetamine challenge. This phenomenon has been proposed to model the chronic and progressive nature of bipolar disorder.
Animals: Male NMRI mice weighing 19-21 g were supplied from Harlan, the Netherland's. The animals were housed 4 pr. cage in makrolon cages (20×35 cm) with two plastic houses and nesting material for enrichment. The animals had 5 days adaptation to the animal-facility prior to the initiation the experiment.
(§3) Equipment: Makrolon cages (20×35 cm) placed in quadrates equipped with 5×8 infrared light sources and photocells spaced by 4 cm were used to record the locomotor activity of the animals. The light beams cross the cage 1.8 cm above the bottom of the cage. Recording of a motility count required interruption of adjacent light beams, thus avoiding counts induced by stationary movements of the mice.
Experimental set-up: The animals were pre-treated with either amphetamine sulphate 2.50 mg/kg (10 ml/kg s.c.) or vehicle for 5 consecutive days. After 11+/−1 days withdrawal period the animals were injected with test-drug or vehicle injection. Lithium chloride was dissolved in distilled water and injected s.c. (6 ml/kg) in dose of 40 mg/kg (0.94 mEq/kg), 30 minutes before testing. Test compound ([2-(6-fluoro-1H-indol-3-ylsulfanyl)benzyl]methyl amine L-(+)-hydrogen tatrate) was dissolved in 10% hydroxypropyl-beta-cyclodextrin and injected s.c. in doses of 0.08 and 0.4 mg/kg 60 minutes before testing. Owing to Test compound's lower affinity to rodent 5HT2A receptor with respect to the human receptor, the tested doses of Test compound was combined with a dose of MDL 100907 ([R-(+)-a-(2,3-dimethoxyphenyl)-1-[2-(4-fluorophenylethyl)]-4-piperidinem ethanol]) that achieves full occupancy of this receptor. 30 minutes before testing the animals were placed in the activity boxes for habituation. After the habituation period the mice were injected with a low dose amphetamine challenge (1.25 mg/kg or saline, 10 ml/kg) and the locomotor activity were measured for 60 minutes. The mice were dosed after the average weight of 16 animals.

[4] = test system: Male Wistar rats; test: Antimanic effect, amphetamine and chlordiazepoxide induced locomotor activity in rats; type: in vivo, rat; conditions: for induced locomotor activity: amphetamine 1.2 mg/kg + chlordiazepoxide 10.0 mg/kg; for baseline activity: tested doses
Experimental: Increased locomotor activity induced by an appropriate combination of amphetamine and chlordiazepoxide is a proposed animal model of mania. The induced locomotor activity can be reversed by Lithium.
as §2
Animals: Male Wistar rats weighing 160-175 g were supplied from Harlan, the Netherlands. The animals were housed 4 pr. cage in makrolon cages (20×35 cm) with one plastic house for enrichment. The rats had 5 days adaptation to the animal facility prior to the initiation of the experiment.
as §3, with “a U-frame” for “quadrates”, “equipped longitudinally” for “equipped”, “4” for “5×8”, “photocells” for “photocells spaced by 4 cm”, “4” for “1.8”, “rat. A thin layer of standard bedding material coved the bottom of the cage.” for “mice.”
Chlordiazepoxide (10.0 mg/kg) was dissolved in 10% hydroxypropyl-beta-cyclodextrin and injected s.c. (5 ml/kg) immediately after the amphetamine injection.

[5] = test system: Male BALB/cByJ mice; test: Mouse marble burying; type: in vivo; conditions: mice, 0.625, 1.25 and 5 mg/kg s.c., 30 min before 30-minute test
Experimental: as §1
For rodents, burying functions as a defensive behavior, used to lessen the intensity of a threat or the animal's vulnerability to it. Researchers have investigated defensive burying behaviour using a variety of threatening objects such as electrified prods and unpleasant tasting foods and liquids. Benign objects such as marbles and food pellets also elicit burying behaviour. Mice probably bury harmless objects because they are novel, and are therefore perceived as threatening. Acute administration of both anxiolytic and antidepressant drugs reduce the number of marbles buried in this paradigm.
Male BALB/cByJ mice (22-28 g) were housed 5/cage. Two experiments were performed. Mice received vehicle or 0.625, 1.25, or 5 mg/kg (s.c.) Test compound (see example 12). 30 minutes after injection, animals were placed individually in cages containing 20 marbles (2 rows of 10) on top of 1.5 inches of Aspen bedding. After a 30-minute test period, mice were returned to their home cages, and the number of visible marbles (less than ⅔ covered with bedding) were counted and subtracted from 20 to give number of marbles buried.

CC(C)(O)C(=O)O [2-hydroxy isobutyric acid]
solubility [1]: relatively high solubility

CNC1=Nc2ccc(Cl)cc2C(c2ccccc2)=[N+]([O-])C1 [CDP, chlordiazepoxide, reference compound]
stress-induced hyperthermia (T2−T1) [2]: significantly reduced

COc1cccc([C@H](O)C2CCN(CCc3ccc(F)cc3)CC2)c1OC [MDL 100907, [R-(+)-a-(2,3-dimethoxyphenyl)-1-[2-(4-fluorophenylethyl)]-4-piperidinemethanol], reference compound]
induced locomotor activity ([3]; MDL 100907 0.3 mg/kg): significantly decreased
baseline activity ([3]; mice): no significant effect
induced locomotor activity ([4]; MDL 100907 0.3 mg/kg): significantly reversed
baseline activity [4]: no effect

CNCc1ccccc1Sc1c[nH]c2cc(F)ccc12.O=C(O)C(O)C(O)C(=O)O [Test compound, [2-(6-fluoro-1H-indol-3-ylsulfanyl)benzyl]methyl amine L-(+)-hydrogen tatrate]
induced locomotor activity ([3]; Test compound 0.08 mg/kg and 0.4 mg/kg s.c. alone): no effect
baseline activity in saline pre-treated animals ([3]; mice, Test compound 0.08 and 0.4 mg/kg combined with MDL 100907 0.3 mg/kg): significantly lowered
baseline activity ([3]; mice): no significant effect
numbers of marbles buried [5]: significantly and equivalently reduced
induced locomotor activity ([4]; Test compound 0.4 mg/kg combined with MDL 100907 0.3 mg/kg): significant attenuation
induced locomotor activity ([4]; Test compound 0.4 mg/kg s.c. alone): tendency to increase the locomotor activity induced activity, but not significantly
baseline activity [4]: no effect

CNCc1ccccc1Sc1c[nH]c2cc(F)ccc12.O=C(O)C(O)C(O)C(=O)O [alpha form of the L(+) hydrogen tartrate salt] [[2-(6-Fluoro-1H-indol-3-ylsulfanyl)-benzyl]-methyl-amine L-(+)-hydrogen tartrate]
water absorbed when exposed to high relative humidity: < 0.1%

CNCc1ccccc1Sc1c[nH]c2cc(F)ccc12.O=C(O)C(O)C(O)C(=O)O [beta form of the L(+) hydrogen tartrate salt] [[2-(6-Fluoro-1H-indol-3-ylsulfanyl)-benzyl]-methyl-amine L-(+)-hydrogen tartrate]
water absorbed when exposed to high relative humidity: about 0.6%
